What all share (assay type): cell-based
Assay [1] has as its system acetyl-Histone H3 in Human lung cancer A549 cells. Briefly: Immunostaining of HDAC associated proteins. The settings on record: 7.5 μg/mL, 6 hrs (FIG. 3(c)). How it is done:
(§1) Rat C6 glioma cells, Human breast cancer MCF-7 cells, and Human lung cancer A549 cells were seeded in 6-well plates. After 24 hrs of incubation in medium+10 BSA, Human breast cancer MCF-7 cells were treated with NBM-HB-OS01 (10.0 μg/mL) and vorinostat (SAHA, 5 μM) for 24 hours. Rat C6 glioma cells were treated with NBM-C-BX-OS01 (7.5 μg/mL) and vorinostat (SAHA, 5 μM) for 6 hours. Human lung cancer A549 cells were treated with NBM-C-BA-OS01 (7.5 μg/mL) and vorinostat (SAHA, 5 μM) for 6 hours. The treated cells were fixed in 80% methanol for 30 minutes and then washed 3 times with PBS solution. Cells were permeabilized with 0.3% Triton X-100 for 30 minutes, and then blocked in 10% fetal bovine serum (FBS) in PBS-T (0.1% Twin 20 in PBS) for 1 hour. The treated cells were detected with primary antibody against acetyl-Histone H3, acetyl-tubulin, and Gelsolin.

In assay [2] the test system is Human breast cancer MCF-7 cells. Briefly: Inhibition of cancer cell growth and change of morphology. How it is done: (§2) Three cancer cell lines, Rat C6 giloma cells, Human breast cancer MCF-7 cells, and Human lung cancer A549 cells, were cultured in Dulbecco's modified Eagle's medium (DMEM; Gibco) containing 10% fetal bovine serum (FBS) and 1% penicillin/streptomycin. All three cell lines were maintained at 37° C. in a humidified atmosphere of 95% air and 5% CO2. For the experiments, the cells were seeded in 6-well plates. After 24 hours, the cells were treated with different concentrations of the various compounds.
(§3) Five cancer cell lines, Rat C6 giloma cells, Human breast cancer MCF-7 cells, Human glioma Hs683 cells, Human glioblastoma 05-MG cells, and Human lung cancer A549 cells, were cultured in Dulbecco's modified Eagle's medium (DMEM; Gibco) containing 10% fetal bovine serum (FBS) and 1% penicillin/streptomycin, and were kept at 37° C. in a humidified atmosphere of 95% air and 5% CO2. Human breast cancer. MDA-MB-231 cells were cultured in L-15 medium (Gibco) containing 10% fetal bovine serum (FBS), 1% penicillin/streptomycin, and 2 mM glutamine, and were maintained at 37° C. in a humidified atmosphere of 95% air and 0% CO2. For these experiments, the cells were seeded in 6-well plates or a 60-mm dish. After 24 hours, the cells were treated with different concentrations of the various compounds. […] Human glioblastoma 05-MG cells were treated with NBM-C-BCX-OS01 (1.0, 2.0, 4.0 μg/mL) and NBM-C-BMX-OS01 (1.0, 2.0, 4.0 μg/mL) for 72 hours (see FIG. 5(e)). […] The results were counted by a trypan blue exclusion assay (see FIG. 6(b)).

A further assay deals with Rat C6 glioma cells. The assay is described as above. The settings on record: for inhibition of cell growth: Rat C6 glioma cells. How it is done: as §2, §3
The test system of assay [3] is acetyl-tubulin in Rat C6 glioma cells. The experiment in a line: Immunostaining of HDAC associated proteins. The settings on record: 7.5 μg/mL, 6 hrs (FIG. 2(e)). How it is done:
as §1

The test system of assay [4] is acetyl-Histone H3, acetyl-Histone H4, acetyl-tubulin, p21 in Human breast cancer MCF-7 cells. The experiment in a line: Immunoblotting of hyperacetylated histone, tubulin and p21. The settings on record: 10 μg/mL (7.5 μg/mL elsewhere in the source) for 1, 2, 3 and 4 hrs (FIG. 2(d)). On the procedure:
(§4) Rat C6 glioma cells and Human breast cancer MCF-7 cells were seeded 5×10^5 cells in a 60-mm dish or 1×10^6 cells in a 100-mm dish. After 24 hours, Rat C6 glioma cells were treated with various concentrations of NBM-HB-OS01 (2.5, 5.0, 7.5, 10.0 μg/mL) for 72 hours and were treated with 10.0 μg/mL. NBM-HB-OS01 for 1, 2, 3, and 4 hours. Human breast cancer MCF-7 cells were treated with 7.5 μg/mL NBM-C-BX-OS01 for 1, 2, 3, and 4 hours.

The subject of assay [5] is Human lung cancer A549 cells. Briefly: Inhibition of cancer cell growth. On the procedure: as §2, §3
The test system of assay [6] is p21 mRNA in Rat C6 glioma cells. Briefly: RT-PCR of cell-cycle related mRNA expression. The settings on record: 48 hrs, GAPDH internal control (FIG. 1(d)). On the procedure: The cell-cycle related mRNA expression was examined by RT-PCR. The total RNA was isolated from the treated Rat C6 glioma cells using the RNeasy Mini Kit (Qiagen) as described by the manufacturer. The cDNA was produced from 500 ng of total RNA using ReverTra-Plus™ (TOYOBO).

Assay [7] concerns Gelsolin in Human breast cancer MCF-7 cells. Briefly: Immunostaining of HDAC associated proteins. The settings on record: 10 μg/mL, 24 hrs (FIG. 1(g)). On the procedure:
as §1

Assay [8] has as its system Human colon cancer HT-29 cells. The experiment in a line: Inhibition of cancer cell growth. The settings on record: various concentrations, 48 hrs (FIG. 1(b)).
For assay [9], the system named is Human lung cancer A549 cells. The experiment in a line: Cell cycle analysis by flow cytometry (propidium iodide). The settings on record: A549 cells, 2.5, 5.0, 7.5, 10.0 μg/mL, 24 hours (FIG. 1(c)). How it is done:
Human lung cancer A549 cells, Human glioma Hs683 cells and Human glioblastoma 05-MG cells were seeded 1×10^6 cells in a 100-mm dish. After 24 hours of incubation in DMEM+10% BSA, Human lung cancer A549 cells were treated with NBM-HB-OS01 (2.5, 5.0, 7.5, 10.0 μg/mL) for 24 hours and were treated with NBM-C-BCX-OS01 (2.5, 5.0, 7.5 μg/mL) and NBM-C-BMX-OS01 (2.5, 5, 7.5 μg/mL) for 72 hours. Human glioblastoma 05-MG cells were treated with NBM-C-BCX-OS01 (1.0, 2.0, 4.0 μg/mL) and NBM-C-BMX-OS01 (1.0, 2.0, 4.0 μg/mL) for 72 hours. Human glioma Hs683 cells were treated with NBM-C-BCX-OS01 (1.0, 2.0, 4.0 μg/mL). For cell cycle analysis, cells were fixed in 80% ethanol for 1 hour (or overnight) at −20° C. and then incubated with 2 μg/mL RNase A for 30 minutes at 37° C. Cells were stained with propidium iodide ([…] PI) in PBS and analyzed using a Becton Dickinson flow cytometer, BD FACScan and CellQuest acquisition and analysis programs. […] Human glioma Hs683 cells were treated with NBM-C-BCX-OS01 (1.0, 2.0, 4.0 μg/mL) for 72 hours.

Assay [10] has as its system acetyl-Histone H3, acetyl-Histone H4, acetyl-tubulin, p21 in Rat C6 glioma cells. Briefly: Immunoblotting of hyperacetylated histone, tubulin and p21. How it is done: as §4
Where [11] appears, read: various concentrations, 48 hrs (FIG. 1(a), 2(a)).
Setting [12] is: Rat C6 glioma cells, 2.5, 5.0, 7.5, 10.0 μg/mL, 72 hrs, western blotting (FIG. 1(e)).

Entries after “also recorded” stand apart in the source; their conditions may differ.

Turning to `COc1ccc(/C=C/C(=O)Nc2ccccc2N)c(OCc2ccccc2)c1CC=C(C)C` [NBM-C-BA-OS01, (E)-2-Benzoxy-3-prenyl-4-methoxy-N-(2-aminophenyl) cinamide], the “acetylation of Histone H3 protein” value in assay [1] is “Hyperacetylation of Histone H3 protein was detected; also recorded: could induce the HDAC associated proteins expression”. The changes in morphology result in assay [2] (MCF-7 cells, 2.5, 5.0, 7.5 μg/mL, 72 hrs (FIG. 3(a))) is reported as “exhibited changes in morphology”; with Rat C6 glioma cells (Rat C6 glioma cells, 2.5, 5.0, 7.5 μg/mL, 72 hrs (FIG. 3(b))) it was “exhibited changes in morphology”. Besides, the “inhibition of cell growth” value in the assay with Rat C6 glioma cells (7.5 μg/mL, 48 hrs (FIG. 4)) was “inhibited the Rat C6 glioma cell growth”; with Rat C6 glioma cells (24 hrs, NBM-C-BA-OS01 5 μg/mL, others 2.5, 5.0 μg/mL (FIG. 5(a))), “inhibited the cell growth”.

For the compound `COc1ccc(/C=C\C(=O)NO)c(OCc2ccccc2)c1CC=C(C)C` [NBM-C-BX-OS01, (Z)-2-Benzoxy-3-prenyl-4-methoxy-N-hydroxy-cinamide], the “acetylated tubulin protein expression” value in assay [3] is “Overexpression of acetylated tubulin protein was observed; also recorded: could induce the HDAC associated proteins expression”. In addition, in assay [2] (MCF-7 cells, various concentrations, 24 hrs (FIG. 2(b))), the “inhibition of cell growth” value is “Inhibition of cancer cells growth was shown; also recorded: arrested the cell growth”. In addition, in the assay with Rat C6 glioma cells (setting [11]), the “inhibition of cell growth” value was “Inhibition of cancer cells growth was shown; also recorded: arrested the cell growth”. In addition, in assay [4], the “expression of acetylated H3” value was “increased in a dose-dependent manner”, the “expression of acetylated H4” value is on record as “increased in a dose-dependent manner”, the expression of acetylated-tubulin entry is given as “increased in a dose-dependent manner” and the “expression of p21” value was “increased in a dose-dependent manner”. For the same compound, the cell growth inhibition result in assay [5] (72 hrs, NBM-C-BX-OS01 7.5, others 2.5, 5.0, 7.5 μg/mL (FIG. 5(b))) is “induced A549 cells growth inhibition in a dose-dependent manner; also recorded: induced A549 cell growth inhibition in dose-dependent amounts”. Moreover, the “inhibition of cell growth” value in assay [5] (various concentrations, 48 hrs (FIG. 2(c))) is “Inhibition of cancer cells growth was shown; also recorded: arrested the cell growth”.

For `COc1ccc(/C=C\C(=O)OCc2ccccc2)c(OCc2ccccc2)c1CCC(C)(C)O` [NBM-HB-OS01], in [6], the “p21 mRNA (gene) expression” value is recorded as “increased p21 gene expression; also recorded: induced p21 mRNA expression”. Besides, the Gelsolin protein expression entry in [7] is recorded as “Overexpression of Gelsolin protein was observed; also recorded: could induce the HDAC associated proteins expression”. The “inhibition of cell growth” value in [8] is recorded as “Inhibition of cancer cell growth”; in [8] (listed as NBM-HB-HB-OS01), “Inhibition of cancer cells was shown”; in the assay on Rat C6 glioma cells (setting [11]), “Inhibition of cancer cell growth”; in the assay with Rat C6 glioma cells (various concentrations, 48 hrs (FIG. 1(a), 2(a)), listed as NBM-HB-HB-OS01), “Inhibition of cancer cells was shown”. Moreover, in assay [9], the “cell cycle arrest phase” value is on record as “arrested the human lung cancer A549 cells on the G0/G1 phase in a dose-dependent manner”. In addition, the “accumulation of p21” value is listed as “seen in a dose-dependent manner” in assay [10] (Rat C6 glioma cells, 10 μg/mL for 1, 2, 3 and 4 hrs (FIG. 1(f))); “detected in a dose-dependent manner” in assay [10] (setting [12]). Moreover, in assay [10] (setting [12]), the “accumulation of hyperacetylated histone H3” value is listed as “detected in a dose-dependent manner”. Further, the “accumulation of hyperacetylated histone H4” value in [10] (setting [12]) is reported as “detected in a dose-dependent manner”.
